pIC50: −log10 of the molar value.
The compounds below were run against T1, BACE 1 (Homo sapiens, UniProt P56817) (assay: ECL Assay: homogeneous end point electrochemiluminescence assay with biotinylated BACE substrate). Conditions: soluble human enzyme, pH 6.5.
T1 construct: soluble (transmembrane domain and cytoplasmic extension excluded) human protein; made in house; host or cells: baculovirus expression system (insect cells implied)
T1 sequence (P56817 46-457 limits assumed): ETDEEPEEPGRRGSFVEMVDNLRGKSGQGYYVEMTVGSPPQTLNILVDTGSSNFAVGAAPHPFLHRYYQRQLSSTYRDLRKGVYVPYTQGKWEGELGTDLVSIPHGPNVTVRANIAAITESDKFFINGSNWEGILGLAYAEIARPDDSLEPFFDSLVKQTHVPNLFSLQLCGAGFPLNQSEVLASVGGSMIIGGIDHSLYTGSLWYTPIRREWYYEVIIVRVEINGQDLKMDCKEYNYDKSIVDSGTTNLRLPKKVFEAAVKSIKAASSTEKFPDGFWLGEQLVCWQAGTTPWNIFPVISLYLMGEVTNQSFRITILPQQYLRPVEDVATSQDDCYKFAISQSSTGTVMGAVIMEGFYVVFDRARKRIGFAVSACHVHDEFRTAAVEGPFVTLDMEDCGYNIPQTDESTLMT
Type: biochemical
Description: Enzyme inhibition is determined as follows.
ECL Assay: A homogeneous end point electrochemiluminescence (ECL) assay is performed using a biotinylated BACE substrate. […] A typical reaction contains approximately 0.6 nM enzyme, 0.25 μM of the substrate, and buffer (50 mM Pipes, pH 6.5, 0.1 mg/ml BSA, 0.2% CHAPS, 15 mM EDTA and 1 mM deferoxamine) in a total reaction volume of 100 μl. […] To measure the inhibitory potency for compounds, 10 concentrations of inhibitors are prepared starting from 200 μM with three fold series dilution. Solutions of the inhibitor in DMSO are included in the reaction mixture (final DMSO concentration is 10%). All experiments are conducted at […] using the standard reaction conditions described above. To determine the IC50 of the compound, a four parameter equation is used for curve fitting.
`CS(=O)(=O)c1ccc(-c2ccccc2[C@@H]2CNC[C@H]2C(=O)N2CCC3(C=Cc4ccccc43)CC2c2ccccc2)cc1` (stereo partly drawn) [Example 83, 1′-({(3S,4R)-4-(4′-(methylsulfonyl)biphenyl-2-yl]pyrrolidin-3-yl}carbonyl)-2′-phenylspiro-[indene-1,4′-piperidine]] showed a pIC50 of 6.42.
`CCOc1ccc(-c2ccccc2[C@@H]2CNC[C@H]2C(=O)N2CCOC[C@@H]2c2ccccc2)cc1` [Example 12] was tested, and the pIC50 was 4.74.
`O=C([C@@H]1CNC[C@H]1c1ccccc1Br)N1CCCC1Cc1ccccc1` (stereo partly drawn) [Example 8, 2-benzyl-1-{[(3S,4R)-4-(2-bromophenyl)pyrrolidin-3-yl]carbonyl}pyrrolidine] was tested, and the pIC50 was 4.17.
With `O=C([C@@H]1CNC[C@H]1c1ccccc1Br)N1CCC2(C=Cc3ccccc32)CC1c1ccccc1` (stereo partly drawn) [Example 79, 1′-{[(3S,4R)-4-(2-bromophenyl)pyrrolidin-3-yl]carbonyl}-2′-phenylspiro[indene-1,4′-piperidine]] the pIC50 was 5.74.
Compound `CS(=O)(=O)c1ccc(-c2ccccc2[C@@H]2CNC[C@H]2C(=O)N2CCC(c3ccccc3)CC2c2ccccc2)cc1` (stereo partly drawn) [Example 76, 1-({(3S,4R)-4-[4′-(methylsulfonyl)biphenyl-2-yl]pyrrolidin-3-yl}carbonyl)-2,4-diphenylpiperidine] has a pIC50 of 5.46.
Work on `O=C([C@@H]1CNC[C@H]1c1ccccc1Br)N1CCC2(C=Cc3ccccc32)CC1` [Example 38, 1-{[(3S,4R)-4-(2-bromophenyl)pyrrolidin-3-yl]carbonyl}spiro[indene-1,4′-piperidine]] yielded a pIC50 of 4.72.
With `CS(=O)(=O)c1ccc(-c2ccccc2[C@@H]2CNC[C@H]2C(=O)N2CCC3(C=Cc4ccccc43)CC2)cc1` [Example 64] the pIC50 was 5.52.

Reference: patent US8354545B2, “3,4-substituted pyrrolidine beta-secretase inhibitors for the treatment of alzheimer's disease” (Merck, Sharp & Dohme, Corp., priority 2007, dated 2013)
